ChEMBL document CHEMBL1201862, “PubChem BioAssay data set” (2004)
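Values below derive from 48-hour exposures of cells grown in 96-well plates, with endpoints linearly interpolated between the two concentrations bracketing the appropriate inhibition level. The concentration for 50% growth inhibition is given as GI50.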 Activity calls are given as the source filed them. No stated cut-off is given here; in the data, active = GI50 up to about 1.1 µM and inactive = higher.

Experiments:
Test in all cases: NCI tumour cell line growth inhibition, 48 h
NCI/ADR-RES = tested on: NCI/ADR-RES
RXF 393 = tested on: RXF 393
DMS-273 = tested on: DMS-273
MCF7 = tested on: MCF7
U-251 = tested on: U-251
HCT-15 = tested on: HCT-15
SK-MEL-5 = tested on: SK-MEL-5
HL-60 = tested on: HL-60
SNB-78 = tested on: SNB-78
IGROV-1 = tested on: IGROV-1
NCI-H23 = tested on: NCI-H23
HCC 2998 = tested on: HCC 2998
EKVX = tested on: EKVX
OVCAR-4 = tested on: OVCAR-4
M19-MEL = tested on: M19-MEL
OVCAR-3 = tested on: OVCAR-3
UACC-62 = tested on: UACC-62
SNB-19 = tested on: SNB-19
OVCAR-5 = tested on: OVCAR-5
CAKI-1 = tested on: CAKI-1
SF-295 = tested on: SF-295
A498 = tested on: A498
XF498 = tested on: XF498
SK-MEL-28 = tested on: SK-MEL-28
SK-MEL-2 = tested on: SK-MEL-2
Malme-3M = tested on: Malme-3M
SN12C = tested on: SN12C
RPMI-8226 = tested on: RPMI-8226
CCRF-CEM = tested on: CCRF-CEM
HT-29 = tested on: HT-29
HOP-18 = tested on: HOP-18
SF-539 = tested on: SF-539
KM-20L2 = tested on: KM-20L2
COLO 205 = tested on: COLO 205
A549 = tested on: A549
SK-OV-3 = tested on: SK-OV-3
KM12 = tested on: KM12
OVCAR-8 = tested on: OVCAR-8
NCI-H522 = tested on: NCI-H522
MOLT-4 = tested on: MOLT-4
SF-268 = tested on: SF-268
UACC-257 = tested on: UACC-257
HCT-116 = tested on: HCT-116
K562 = tested on: K562
UO-31 = tested on: UO-31
HOP-92 = tested on: HOP-92
DLD-1 = tested on: DLD-1
HOP-62 = tested on: HOP-62
NCI-H460 = tested on: NCI-H460
LOX IMVI = tested on: LOX IMVI
SNB-75 = tested on: SNB-75
DMS-114 = tested on: DMS-114
SW-620 = tested on: SW-620
TK-10 = tested on: TK-10
M14 = tested on: M14
NCI-H226 = tested on: NCI-H226
LXFL 529 = tested on: LXFL 529
786-0 = tested on: 786-0
ACHN = tested on: ACHN
SR = tested on: SR
BT-549 = tested on: BT-549
Hs-578T = tested on: Hs-578T
PC-3 = tested on: PC-3
MDA-MB-231 = tested on: MDA-MB-231
DU-145 = tested on: DU-145
MDA-MB-435 = tested on: MDA-MB-435
T47D = tested on: T47D
MDA-N = tested on: MDA-N

Measured: GI50

O=NN(CCF)C(=O)NC1CC2CCC1C2 (configuration not stated)
active: XF498 < 0.01 µM
> 74.3 µM: HCT-15
inactive: NCI/ADR-RES > 100 µM | RXF 393 > 100 µM | DMS-273 > 100 µM | MCF7 98.9 µM | U-251 > 100 µM | SK-MEL-5 > 100 µM | HL-60 38.7 µM | SNB-78 > 100 µM | IGROV-1 > 72.9 µM | NCI-H23 > 100 µM | HCC 2998 > 100 µM | EKVX > 100 µM | OVCAR-4 > 100 µM | M19-MEL > 100 µM | OVCAR-3 > 100 µM | UACC-62 86.9 µM | SNB-19 > 100 µM | OVCAR-5 > 100 µM | CAKI-1 > 100 µM | SF-295 > 100 µM | A498 > 100 µM | SK-MEL-28 > 100 µM | SK-MEL-2 > 100 µM | Malme-3M > 100 µM | SN12C > 100 µM | RPMI-8226 > 54.3 µM | CCRF-CEM 38.3 µM | HT-29 > 100 µM | HOP-18 > 100 µM | SF-539 > 100 µM | KM-20L2 > 100 µM | COLO 205 > 100 µM | A549 > 100 µM | SK-OV-3 > 100 µM | KM12 > 100 µM | OVCAR-8 > 100 µM | NCI-H522 73.6 µM | MOLT-4 > 100 µM | SF-268 > 100 µM | UACC-257 > 100 µM | HCT-116 > 100 µM | K562 > 53 µM | UO-31 > 100 µM | HOP-92 > 100 µM | DLD-1 > 87.7 µM | HOP-62 > 84.1 µM | NCI-H460 > 100 µM | LOX IMVI 84.7 µM | SNB-75 > 100 µM | DMS-114 > 100 µM | SW-620 > 100 µM

Cc1cc(Cl)ccc1NC(=O)CCCC(=O)C1CCCC1=O (configuration not stated)
> 100 µM: HCT-15
inactive: DMS-273 > 100 µM | U-251 > 100 µM | SK-MEL-5 > 100 µM | HL-60 > 100 µM | SNB-78 > 100 µM | IGROV-1 > 100 µM | NCI-H23 > 100 µM | HCC 2998 > 100 µM | EKVX > 100 µM | OVCAR-4 > 100 µM | M19-MEL > 100 µM | OVCAR-3 > 100 µM | TK-10 > 100 µM | UACC-62 > 100 µM | SNB-19 > 100 µM | OVCAR-5 > 100 µM | CAKI-1 > 100 µM | SF-295 > 100 µM | A498 > 100 µM | XF498 > 100 µM | M14 > 100 µM | SK-MEL-2 > 100 µM | Malme-3M > 100 µM | SN12C > 100 µM | RPMI-8226 > 100 µM | CCRF-CEM > 100 µM | HT-29 > 100 µM | HOP-18 > 100 µM | SF-539 > 100 µM | KM-20L2 > 100 µM | NCI-H226 > 100 µM | COLO 205 > 100 µM | A549 > 100 µM | SK-OV-3 > 100 µM | KM12 > 100 µM | OVCAR-8 > 100 µM | NCI-H522 > 100 µM | MOLT-4 > 100 µM | SF-268 > 100 µM | UACC-257 > 100 µM | LXFL 529 > 100 µM | HCT-116 > 100 µM | K562 > 100 µM | UO-31 > 100 µM | 786-0 > 100 µM | DLD-1 > 100 µM | NCI-H460 > 100 µM | LOX IMVI > 100 µM | ACHN > 100 µM | DMS-114 > 100 µM | SW-620 > 100 µM

C[N+](C)(C)CC1CCC/C1=N\OC(=O)c1ccccc1 (configuration not stated)
inactive: RXF 393 > 100 µM | U-251 > 100 µM | SR > 100 µM | SK-MEL-5 > 100 µM | HL-60 > 100 µM | SNB-78 > 100 µM | IGROV-1 > 100 µM | NCI-H23 > 100 µM | EKVX > 100 µM | OVCAR-4 > 100 µM | M19-MEL > 100 µM | OVCAR-3 > 100 µM | UACC-62 > 100 µM | SNB-19 > 100 µM | SF-295 > 100 µM | A498 > 100 µM | XF498 > 100 µM | SK-MEL-28 > 100 µM | M14 > 100 µM | SK-MEL-2 > 100 µM | Malme-3M > 100 µM | SN12C > 100 µM | RPMI-8226 > 100 µM | CCRF-CEM > 100 µM | HT-29 > 100 µM | HOP-18 > 100 µM | SF-539 > 100 µM | KM-20L2 > 100 µM | NCI-H226 > 100 µM | COLO 205 > 100 µM | A549 > 100 µM | SK-OV-3 > 100 µM | KM12 > 100 µM | OVCAR-8 > 100 µM | NCI-H522 > 100 µM | MOLT-4 > 100 µM | SF-268 > 100 µM | UACC-257 > 100 µM | LXFL 529 > 100 µM | HCT-116 > 100 µM | K562 > 100 µM | UO-31 > 100 µM | 786-0 > 100 µM | DLD-1 > 100 µM | HOP-62 > 100 µM | LOX IMVI > 100 µM | ACHN > 100 µM | SNB-75 > 100 µM | DMS-114 > 100 µM | SW-620 > 100 µM
> 100 µM: HCT-15

COC(=O)c1c(CC(=O)OC(C)C)cc2n(c1=O)Cc1c-2nc2ccccc2c1OC
inactive: RXF 393 26.4 µM | DMS-273 > 100 µM | U-251 > 100 µM | SR 33.8 µM | SK-MEL-5 > 100 µM | HL-60 > 100 µM | IGROV-1 83.9 µM | NCI-H23 > 100 µM | HCC 2998 > 100 µM | EKVX > 100 µM | OVCAR-4 > 100 µM | M19-MEL > 100 µM | OVCAR-3 > 100 µM | TK-10 > 100 µM | UACC-62 > 100 µM | SNB-19 > 100 µM | OVCAR-5 > 100 µM | CAKI-1 > 100 µM | SF-295 > 100 µM | A498 > 100 µM | XF498 > 100 µM | SK-MEL-28 > 100 µM | M14 > 100 µM | SK-MEL-2 > 100 µM | Malme-3M > 100 µM | SN12C > 100 µM | RPMI-8226 59 µM | CCRF-CEM > 100 µM | HT-29 > 100 µM | HOP-18 > 100 µM | KM-20L2 > 100 µM | NCI-H226 99.1 µM | COLO 205 > 100 µM | A549 > 100 µM | SK-OV-3 > 100 µM | OVCAR-8 > 100 µM | NCI-H522 > 100 µM | MOLT-4 > 100 µM | SF-268 > 100 µM | UACC-257 > 100 µM | LXFL 529 > 100 µM | HCT-116 > 100 µM | K562 > 100 µM | UO-31 > 100 µM | 786-0 > 100 µM | HOP-92 45.6 µM | DLD-1 > 100 µM | HOP-62 > 100 µM | NCI-H460 > 100 µM | LOX IMVI > 100 µM | ACHN > 100 µM | SNB-75 27 µM | DMS-114 > 100 µM | SW-620 > 100 µM
> 100 µM: HCT-15

N=c1nc2n(cc1F)[C@@H]1O[C@H](CO)[C@@H](O)[C@@H]1O2
active: SR 0.424 µM | HL-60 0.317 µM | CCRF-CEM < 0.0122 µM | A549 0.335 µM | DU-145 0.971 µM | OVCAR-8 1.04 µM | MOLT-4 0.0336 µM | MDA-MB-435 0.658 µM | NCI-H460 0.286 µM | LOX IMVI 1.06 µM
> 90.2 µM: HCT-15
inactive: NCI/ADR-RES 9.59 µM | RXF 393 > 40.7 µM | DMS-273 3.63 µM | MCF7 1.14 µM | U-251 24.8 µM | SK-MEL-5 35.4 µM | SNB-78 62.2 µM | IGROV-1 47.4 µM | NCI-H23 2.29 µM | HCC 2998 > 56 µM | EKVX > 100 µM | OVCAR-4 > 100 µM | OVCAR-3 9.1 µM | TK-10 > 75.5 µM | UACC-62 > 92.5 µM | SNB-19 > 92.9 µM | OVCAR-5 > 100 µM | CAKI-1 3.45 µM | SF-295 49.9 µM | A498 13.4 µM | XF498 > 100 µM | SK-MEL-28 > 63.7 µM | M14 1.45 µM | SK-MEL-2 > 100 µM | Malme-3M 9.42 µM | BT-549 > 100 µM | SN12C 14.4 µM | RPMI-8226 56.9 µM | Hs-578T > 100 µM | HT-29 34.4 µM | PC-3 > 100 µM | HOP-18 13.4 µM | SF-539 53 µM | MDA-MB-231 > 100 µM | KM-20L2 2.99 µM | NCI-H226 17.3 µM | COLO 205 14 µM | SK-OV-3 8.55 µM | KM12 > 100 µM | NCI-H522 4.18 µM | SF-268 4.22 µM | UACC-257 > 23.6 µM | LXFL 529 > 26.5 µM | HCT-116 1.31 µM | K562 4.33 µM | UO-31 24.6 µM | 786-0 4.46 µM | T47D 18.4 µM | HOP-92 11.3 µM | DLD-1 1.44 µM | MDA-N > 100 µM | HOP-62 2.36 µM | ACHN 2.12 µM | SNB-75 > 70.6 µM | SW-620 > 20.5 µM
